Read-outs that look alike come from different tables or passages of the source.
Key:
[1] = system: HCV genotype 1a (H77 strain) replicon in HUH-7 cells; assay: HCV replicon luciferase reporter assay, genotype 1a; format: cell-based; conditions: Hepatitis C virus, Huh-7, 72 h, HCV genotype 1a replicon luciferase, 3 days incubation
Procedure, shortened: (§1)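 Replicon inhibition for both genotypes was measured as Renilla luciferase signal (EnduRen, 7.5 μM final, 2 h) after 3-day, 37° C exposure of replicon-bearing HUH-7 cells in 4% FCS DMEM, 0.5% DMSO. The 1b construct carries S1179I; the 1a H77 construct carries P1496L and S2204I. Twenty-point, 3-fold dilutions were fitted four-parametrically for EC50, and CC50 was taken from multiplexed Cell Titer-Blue.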

[2] = system: HCV genotype 1b (Con1) replicon in HUH-7 cells; assay: HCV replicon luciferase reporter assay, genotype 1b; format: cell-based; conditions: Hepatitis C virus, Huh-7, 72 h, HCV genotype 1b replicon luciferase, 3 days incubation
Procedure, shortened: as §1

Compound	EC50 ([1]; read-out: LE_1a (EC50)) [nM]	EC50 ([1]; read-out: LE_1a (EC50, range)) [nM]	EC50 ([2]; read-out: LE_1b (EC50)) [nM]	EC50 ([2]; read-out: LE_1b (EC50, range)) [nM]	EC50 ([1]; GETYPE1A, read-out: LE_1a (EC50, range)) [nM]	EC50 ([2]; GETYPE1B, read-out: LE_1b (EC50, range)) [nM]
COc1ccc2c(O[C@@H]3C[C@H]4C(=O)N[C@]5(C(=O)NS(=O)(=O)C6(C)CC6)C[C@H]5/C=C\CC[C@@H](C)C[C@@H](C)[C@H](NC(=O)O[C@H](C)C(F)(F)F)C(=O)N4C3)nc(-c3ccc(OC(C)C)cc3)c(OC)c2c1 [Compound 5350, (R)-1,1,1-trifluoropropan-2-yl ((2R,6S,7R,9R,13aS,14aR,16aS,Z)-2-((3-(4-isopropoxyphenyl)-4,6-dimethoxyisoquinolin-1-yl)oxy)-7,9-dimethyl-14a-(((1-methylcyclopropyl)sulfonyl)carbamoyl)-5,16-dioxo-1,2,3,5,6,7,8,9,10,11,13a,14,14a,15,16,16a-hexadecahydrocyclopropa[e]pyrrolo[1,2-a][1,4]diazacyclopentadecin-6-yl)carbamate]	2.12	< 5.46	1.48	< 5.46	–	–
COc1cnc(O[C@@H]2C[C@H]3C(=O)N[C@]4(C(=O)NS(=O)(=O)C5CCC5)C[C@H]4/C=C\CC[C@@H](C)C[C@@H](C)[C@H](NC(=O)OC(C)(C)C)C(=O)N3C2)c2ccccc12 [Compound 5352]	–	< 5.46	–	< 5.46	–	–
COc1cnc(O[C@@H]2C[C@H]3C(=O)N[C@]4(C(=O)NS(=O)(=O)C5CCC5)C[C@H]4/C=C\CC[C@H](C)C[C@@H](C)[C@H](NC(=O)OC(C)(C)C(F)(F)F)C(=O)N3C2)c2ccccc12 [Compound 5353, 1,1,1-trifluoro-2-methylpropan-2-yl((2R,6S,7R,9S,13aS,14aR,16aS,Z)-14a-((cyclobutylsulfonyl)carbamoyl)-2-((4-methoxyisoquinolin-1-yl)oxy)-7,9-dimethyl-5,16-dioxo-1,2,3,5,6,7,8,9,10,11,13a,14,14a,15,16,16a-hexadecahydrocyclopropa[e]pyrrolo[1,2-a][1,4]diazacyclopentadecin-6-yl)carbamate]	–	4.82 to 103	–	< 5.46	–	–
COc1cnc(O[C@@H]2C[C@H]3C(=O)N[C@]4(C(=O)NS(=O)(=O)C5CCC5)C[C@H]4/C=C\CC[C@@H](C)C[C@@H](C)[C@H](NC(=O)OC(C)(C)C(F)(F)F)C(=O)N3C2)c2ccccc12 [Compound 5354, 1,1,1-trifluoro-2-methylpropan-2-yl((2R,6S,7R,9R,13aS,14aR,16aS,Z)-14a-((cyclobutylsulfonyl)carbamoyl)-2-((4-methoxyisoquinolin-1-yl)oxy)-7,9-dimethyl-5,16-dioxo-1,2,3,5,6,7,8,9,10,11,13a,14,14a,15,16,16a-hexadecahydrocyclopropa[e]pyrrolo[1,2-a][1,4]diazacyclopentadecin-6-yl)carbamate]	–	< 5.46	–	< 5.46	–	–
CCOc1cnc(O[C@@H]2C[C@H]3C(=O)N[C@]4(C(=O)NS(=O)(=O)C5(CF)CC5)C[C@H]4/C=C\CC[C@@H](C)C[C@@H](C)[C@H](NC(=O)OC(C)(C)C(C)(F)F)C(=O)N3C2)c2ccccc12 [Compound 5355]	–	–	–	–	1.01 to 5	1.01 to 5
CCOc1ccc2c(O[C@@H]3C[C@H]4C(=O)N[C@]5(C(=O)NS(=O)(=O)C6CC6)C[C@H]5/C=C\CC[C@@H](C)C[C@@H](CC)[C@H](NC(=O)OC(C)(C)C(F)(F)F)C(=O)N4C3)nccc2c1 [Compound 5357, 1,1,1-trifluoro-2-methylpropan-2-yl((2R,6S,7R,9R,13aS,14aR,16aS,Z)-14a-((cyclopropylsulfonyl)carbamoyl)-2-((6-ethoxyisoquinolin-1-yl)oxy)-7-ethyl-9-methyl-5,16-dioxo-1,2,3,5,6,7,8,9,10,11,13a,14,14a,15,16,16a-hexadecahydrocyclopropa[e]pyrrolo[1,2-a][1,4]diazacyclopentadecin-6-yl)carbamate]	–	1.01 to 5	–	0.51 to 1	–	–
CCOc1ccc2c(O[C@@H]3C[C@H]4C(=O)N[C@]5(C(=O)NS(=O)(=O)C6CC6)C[C@H]5/C=C\CC[C@@H](C)C[C@@H](CC)[C@H](NC(=O)OC(C)(C)C(C)(F)F)C(=O)N4C3)nccc2c1 [Compound 5359]	–	1.01 to 5	–	1.01 to 5	–	–
